Consider 5 compounds from patent US12168652B2, “Neuromuscular blocking agents” (The Curators of the University of Missouri, priority 2018, dated 2024).

“Also recorded” adds a separate entry of the source.

In experiment [1] the test system is rat phrenic nerve, hemi-diaphragm preparation. Put plainly: Rat phrenic nerve hemi-diaphragm preparation, neostigmine reversibility. Particulars: FIG. 8, in vitro; for neostigmine reversibility of the loss of strength (muscle weakness): 1 μM neostigmine. Here is the method: Male, Sprague-Dawley rats weighing 100-180 g were obtained from Envigo and euthanized by exposure to 4.5% isoflurane followed by exsanguination. Right and left hemi-diaphragms were removed and placed in oxygen bubbled, cold saline until use. The saline contained, in mM, 140 NaCl, 5 KCl, 1.6 CaCl2·6H2O, 1 NaH2PO4, 6 NaHCO3, 5 D-glucose, 10 HEPES, pH 7.2 adjusted with 1 N NaOH, and was bubbled with 100% oxygen at 22° C. The costal cartilage of the hemi-diaphragm was secured to the floor of a 20 mL volume chamber with a metal hook and the crural end attached to a metal hook and thread leading to a force transducer (iWorx Systems, Dover, NH) and a data acquisition program (Labscribe). The phrenic nerve was introduced into a suction electrode and stimulated (pulse width=0.5 msec, supramaximal voltage=1 V) with a train of four, i.e., four stimuli in two seconds, repeated every minute. The first pulse, T1, was used as a measure of muscle strength. […]
In the figure CONTROL is the force of contraction before addition of test substances, TEST is the force after the addition of test substances, NEOSTIG is the force of contraction after the addition of 1 μM neostigmine, ROC is rocuronium, and SUC is succinylcholine.

Experiment [2] concerns the target T1, adult, human muscle, nicotinic acetylcholine receptor (Homo sapiens, UniProt P02708+P11230+Q04844+Q07001).
T1 construct: expressed in transfected cells; host or cells: HEK-293
Put plainly: Patch clamp electrophysiology in transfected HEK-293 cells. Particulars: outside-out patch, 10 μM compound, 300 μM acetylcholine, -50 mV; for competition with acetylcholine at the receptor (summary graph): FIG. 9B. In kind it is cell-based. Here is the method:
Patch clamp electrophysiology: HEK-293 cells were transfected with the cDNA for adult, human muscle acetylcholine receptors and prepared for patch clamp recording as described previously. Immediately before the experiment, the culture medium was replace with an extracellular solution (ECS) contains 150 mM NaCl, 5.6 mM KCl, 1.8 mM CaCl2, 1.0 mM MgCl2, and 10 mM HEPES, pH 7.3. Patch pipettes filled with a solution consisting of 140 mM KCl, 5 mM EGTA, 5 mM MgCl2, and 10 mM HEPES, pH 7.3, had resistances of 3 to 4 MΩ. An outside-out patch with a seal resistance of >2 GΩ was excised from a cell and moved into position at the outflow of a HSSE-2 rapid perfusion system (ALA Scientific Instruments, Westbury, NY). The patch was rapidly and transiently perfused with 300 μM acetylcholine to activate >95% of the channels at a holding potential of −50 mV. This was the control trace; the figures show the average of 5 control traces. Subsequently, the same patch was used to test for agonist activity by the carborane compounds by switching to a reservoir containing 300-1000 μM of the compound, repeated 5 times. To test for antagonism, the patch was equilibrated with 10 μM of the compound for >3 s followed by rapid perfusion of 300 μM acetylcholine+compound. Each series of traces using a compound was followed a return to control conditions (recovery) to determine that the control current hadn't changed by more than 20%. The peak current for each series of traces was calculated. The decrease in peak current represented a combination of competitive and open-channel block by the compound. The results are illustrated in FIGS. 9A and 9B.
For orientation: In patch-clamp work, channel activity is measured electrically.

The test system of experiment [3] is mice. The following applies: FIG. 6; dose response.

In the case of “1,2-bis(N, N, N-trimethylpropan-1-aminium)-1,2-closo-carborane di-iodide [compound 1]”, in experiment [1], the “mechanism of action (depolarizing or non-depolarizing) from neostigmine reversal” value is listed as “non-depolarizing NMBA; also recorded: non-depolarizers” and the “neostigmine reversibility of the loss of strength (muscle weakness)” value was “reversed by neostigmine”. For the same compound, the “competition with acetylcholine at the receptor (summary graph)” value (shortened to “competition … (summary graph)”) in experiment [2] is given as “compete with acetylcholine”.

As to “1,7-bis(N, N, N-trimethylpropan-1-aminium)-1,7-closo-carborane di-iodide [compound 2]”, in experiment [1], the “mechanism of action (depolarizing or non-depolarizing) from neostigmine reversal” value is “non-depolarizing NMBA; also recorded: non-depolarizers” and the “neostigmine reversibility of the loss of strength (muscle weakness)” value is given as “reversed by neostigmine”. The “competition … (summary graph)” value in experiment [2] was “compete with acetylcholine”.

With “1,12-bis(N, N, N-trimethylpropan-1-aminium)-1,12-closo-carborane di-iodide [compound 3]”, in experiment [1], the “mechanism of action (depolarizing or non-depolarizing) from neostigmine reversal” value is given as “non-depolarizing NMBA; also recorded: non-depolarizers” and the “neostigmine reversibility of the loss of strength (muscle weakness)” value is “reversed by neostigmine”. Further, the “competition with acetylcholine at the receptor (single compound traces)” value in experiment [2] (FIG. 9A) is listed as “competes reversibly with acetylcholine”. Further, in experiment [2], the “competition … (summary graph)” value is given as “compete with acetylcholine”. The “relative potency for loss of mouse grip strength as a function of dose injected” value in experiment [3] is “more potent than compound 1”.

Regarding `C=CC[N+]1([C@H]2C[C@H]3[C@@H]4CC[C@H]5C[C@H](O)[C@@H](N6CCOCC6)C[C@]5(C)[C@H]4CC[C@]3(C)[C@H]2OC(C)=O)CCCC1` [rocuronium, Rocuronium bromide, reference compound], the “neostigmine reversibility of the loss of strength (muscle weakness)” value in experiment [1] is on record as “reversed by neostigmine”.

Regarding `C[N+](C)(C)CCOC(=O)CCC(=O)OCC[N+](C)(C)C` [succinylcholine, succinylcholine chloride, reference compound], the “neostigmine reversibility of the loss of strength (muscle weakness)” value in experiment [1] is listed as “not reversed by neostigmine”.
